From PubChem BioAssay AID2060882 (Molecular Pharmacology Branch, DTP, NCI, 2025)

System: 898857-211-R-J1-PDC complex spheroids, growth % test/control
Test: Anticancer human tumor 898857-211-R-J1-PDC patient-derived melanoma cell line growth inhibition [RAS]
Conditions: for IC50: curve of first compound; for viability, T/C: stronger effect = lower value; active means viability on the fitted dose curve at most 10% of control; inactive means the rest
How it was run: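 Agents were tested in combination matrices in half-log decrements from a top concentration at or near clinical Cmax (10 microM if undetermined). Targets were multi-cell spheroids of tumour lines plus HUVEC and MSC stromal cells.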

[1] = second compound 0.00316 µM, first compound 0.0316 µM
[2] = second compound 0.00316 µM, first compound 0.1 µM
[3] = second compound 0.00316 µM, first compound 0.316 µM
[4] = second compound 0.00316 µM, first compound 1 µM
[5] = second compound 0.00316 µM, first compound 3.16 µM
[6] = second compound 0.00316 µM, first compound 10 µM
[7] = second compound 0.01 µM, first compound 0.0316 µM
[8] = second compound 0.01 µM, first compound 0.1 µM
[9] = second compound 0.01 µM, first compound 0.316 µM
[10] = second compound 0.01 µM, first compound 1 µM
[11] = second compound 0.01 µM, first compound 3.16 µM
[12] = second compound 0.01 µM, first compound 10 µM
[13] = second compound 0.0316 µM, first compound 0.0316 µM
[14] = second compound 0.0316 µM, first compound 0.1 µM
[15] = second compound 0.0316 µM, first compound 0.316 µM
[16] = second compound 0.0316 µM, first compound 1 µM
[17] = second compound 0.0316 µM, first compound 3.16 µM
[18] = second compound 0.0316 µM, first compound 10 µM
[19] = second compound 0.1 µM, first compound 0.0316 µM
[20] = second compound 0.1 µM, first compound 0.1 µM
[21] = second compound 0.1 µM, first compound 0.316 µM
[22] = second compound 0.1 µM, first compound 1 µM
[23] = second compound 0.1 µM, first compound 3.16 µM
[24] = second compound 0.1 µM, first compound 10 µM
[25] = second compound 0.316 µM, first compound 0.0316 µM
[26] = second compound 0.316 µM, first compound 0.1 µM
[27] = second compound 0.316 µM, first compound 0.316 µM
[28] = second compound 0.316 µM, first compound 1 µM
[29] = second compound 0.316 µM, first compound 3.16 µM
[30] = second compound 0.316 µM, first compound 10 µM
[31] = second compound 1 µM, first compound 0.0316 µM
[32] = second compound 1 µM, first compound 0.1 µM
[33] = second compound 1 µM, first compound 0.316 µM
[34] = second compound 1 µM, first compound 1 µM
[35] = second compound 1 µM, first compound 3.16 µM
[36] = second compound 1 µM, first compound 10 µM
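Further: spheroids exposed to compound for seven days before readout.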
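Wherever viability, T/C is given: 100% = DMSO vehicle control wells.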

CC(=O)OC12COC1CC(O)C1(C)C(=O)C(O)C3=C(C)C(OC(=O)C(O)C(NC(=O)OC(C)(C)C)c4ccccc4)CC(O)(C(OC(=O)c4ccccc4)C21)C3(C)C (centres undefined) + C=CC(=O)N1CCN(c2nc(OCC3CCCN3C)nc3c(F)c(-c4nc(N)cc(C)c4C(F)(F)F)c(Cl)cc23)C(C)C1
inactive: viability, T/C [1] 12.3% | viability, T/C [2] 15.6% | viability, T/C [3] 14.2% | viability, T/C [4] 15.5% | viability, T/C [5] 21.2% | viability, T/C [6] 20.4% | viability, T/C [7] 12% | viability, T/C [8] 13.7% | viability, T/C [9] 10.5% | viability, T/C [10] 14.5% | viability, T/C [11] 21.1% | viability, T/C [12] 19.6% | viability, T/C [13] 13.1% | viability, T/C [14] 13.1% | viability, T/C [15] 14.3% | viability, T/C [16] 14.8% | viability, T/C [17] 24.2% | viability, T/C [18] 20% | viability, T/C [19] 11.5% | viability, T/C [20] 15.1% | viability, T/C [21] 14.3% | viability, T/C [22] 16.5% | viability, T/C [23] 16.2% | viability, T/C [24] 19.9% | viability, T/C [25] 12.8% | viability, T/C [26] 15.5% | viability, T/C [27] 14.2% | viability, T/C [28] 16.9% | viability, T/C [29] 14.7% | viability, T/C [30] 21.1% | viability, T/C [31] 12% | viability, T/C [32] 13.3% | viability, T/C [33] 12.1% | viability, T/C [34] 15.4% | viability, T/C [35] 19.4% | viability, T/C [36] 15.2%
< 31.6 nM: IC50 (second compound 0.00316 µM) | IC50 (second compound 0.01 µM) | IC50 (second compound 0.0316 µM) | IC50 (second compound 0.1 µM) | IC50 (second compound 0.316 µM) | IC50 (second compound 1 µM)

CCC(CC)c1cc(NC2CCC(N)C2)n2nccc2n1 (centres undefined) + C=CC(=O)N1CCN(c2nc(OCC3CCCN3C)nc3c(F)c(-c4nc(N)cc(C)c4C(F)(F)F)c(Cl)cc23)C(C)C1
inactive: viability, T/C [1] 119% | viability, T/C [2] 97.5% | viability, T/C [3] 81.5% | viability, T/C [4] 49.1% | viability, T/C [5] 1.15% | viability, T/C [7] 114% | viability, T/C [8] 97.8% | viability, T/C [9] 81.7% | viability, T/C [10] 51% | viability, T/C [13] 104% | viability, T/C [14] 104% | viability, T/C [15] 102% | viability, T/C [16] 56% | viability, T/C [19] 95.5% | viability, T/C [20] 110% | viability, T/C [21] 101% | viability, T/C [22] 60% | viability, T/C [25] 123% | viability, T/C [26] 119% | viability, T/C [27] 104% | viability, T/C [28] 66.3% | viability, T/C [31] 120% | viability, T/C [32] 117% | viability, T/C [33] 101% | viability, T/C [34] 59.7%
806 nM: IC50 (second compound 0.00316 µM)
1220 nM: IC50 (second compound 0.1 µM)
1130 nM: IC50 (second compound 0.0316 µM)
1300 nM: IC50 (second compound 0.316 µM)
851 nM: IC50 (second compound 0.01 µM)
1160 nM: IC50 (second compound 1 µM)
active: viability, T/C [6] 0.2% | viability, T/C [11] 0.97% | viability, T/C [12] 0.25% | viability, T/C [17] 1.12% | viability, T/C [18] 0.25% | viability, T/C [23] 1.01% | viability, T/C [24] 0.21% | viability, T/C [29] 1.11% | viability, T/C [30] 0.26% | viability, T/C [35] 0.94% | viability, T/C [36] 0.24%
